Values after ≈ are worked out from the molar mass of the structure shown. Counter-ions that a name gives are not always drawn.
Legend:
[1] = system: HT29 cells; test: HT29 cell killing by BCNU after drug pretreatment, colony-forming assay; type: cell-based; conditions: for HT29 cell killing by BCNU after prodrug without β-glucuronidase: 5 hr prodrug, no β-glucuronidase, then two-hour 40 μM BCNU; for HT29 cell killing by BCNU after prodrug without β-glucuronidase / HT29 cell killing by BCNU after prodrug with β-glucuronidase: FIG. 3; for HT29 cell killing by BCNU after prodrug with β-glucuronidase: bovine liver β-glucuronidase 20 units/mL of medium, 7 or 14 hr (1), 14 hr (2), then 2 hr 40 μM BCNU
Description: HT29 cells were grown in RPMI 1640 medium in the presence of 10% fetal bovine serum. The effect of alkyltransferase inactivators on the sensitivity of cells to BCNU was determined using a colony-forming assay. Cells were plated at a density of 10^6 in 25 cm^2 flasks and 24 h later were incubated with different concentrations of prodrugs for the time indicated before exposure to 40 μM BCNU for 2 hr. For experiments involving β-glucuronidase, the bovine liver protein was added to the cell cultures at 20 units/mL of medium and incubated along with the prodrug. BCNU was dissolved in absolute ethanol at a concentration of 8 mM. It was diluted with the same volume of ice-cold phosphate-buffered saline, and was immediately administered to cells. After two hr, the medium was replaced with fresh medium and the cells were left to grow for an additional 16-18 h. The cells were then replated at densities of 250 cells per 25 cm^2 flask and grown for 8 days until discrete colonies had formed. The colonies were washed with 0.9% saline solution, stained with 0.5% crystal violet in ethanol, and counted. The plating efficiency of cells not treated with drugs was about 50%.

[2] = Solubility in water; type: physicochemical; conditions: for solubility: water
[3] = Stability under acidic conditions; type: physicochemical
[4] = Stability (first-order hydrolysis) of prodrugs in aqueous buffers at 37° C., HPLC; type: physicochemical; conditions: for Observed first order rate constant for hydrolysis, kTris: 50 mM Tris-HCl (pH 7.5), 5 mM dithiothreitol, 0.1 mM EDTA; for Observed first order rate constant for hydrolysis, kTris / Observed first order rate constant for hydrolysis, kMOPS / Observed first order rate constant for hydrolysis, kDulbecco: 37° C.; for Observed first order rate constant for hydrolysis, kMOPS: 50 mM morpholinopropane sulfonic acid, pH 7.0, 0.01% NaCl; for Observed first order rate constant for hydrolysis, kPBS: Phosphate buffered saline, pH 7.2, 37° C.; for Observed first order rate constant for hydrolysis, kDulbecco: modified Dulbecco's medium
Description: Prodrug purity of the prodrugs was determined by HPLC on a Hewlett-Packard LC 1090 Series II system equipped with a Phenomenex 250×4 mm column (5 μm particle size) eluted isocratically at 1 mL/min with acetonitrile/0.1 M triethylammonium acetate (TEAA), pH 7.0, (3:7). Aliquots (100 μL) from prodrug solutions were withdrawn and diluted with 100 μL of a solution of p-nitrobenzyl alcohol (an internal standard) in acetonitrile/0.1 M TEAA (6:4). UV detection was at 254 and 280 nm. Retention times for 1, 2, O^6-benzylguanine, O^6-benzyl-2′-deoxyguanosine and p-nitrobenzyl alcohol were 5.20, 4.97, 7.13, 7.18 and 8.64 min, respectively. All determinations were carried out in duplicate or triplicate.
The stability of the prodrugs was determined in phosphate buffered saline (pH 7.2) (Life Techologie, Inc), a Tris buffer containing 50 mM Tris-HCl (pH 7.5) (Life Technologies, Inc), 5 mM dithiothreitol and 0.1 mM EDTA, a MOPS buffer (pH 7.0) containing 50 mM morpholinopropane sulfonic acid, […] Dulbecco's medium prepared by combining 400 mL of Dulbecco's medium with 7 mL of 7.5% NanCO3, 4 mL of 15 mM glutamine, 2 mL gentamicin and 40 mL of fetal calf serum. Solutions were incubated at 37° C. and prodrug concentrations were analyzed by HPLC at various times as indicated above.
Rate constants for the first-order disappearance of prodrugs were estimated from semi-log plots of the concentration of prodrug as a function of time. The spontaneous rate of liberation, for example, in aqueous solutions, of the AGT inactivator is much lower than the rate for β-glucuronidase catalyzed liberation, for example, about 10 times less, and preferably 100 times less. The spontaneous rate of liberation of the AGT inactivator from the prodrug is low, e.g., about 0.2 to about 0.5% by weight per hour.

[5] = molecular target: T1, E. coli β-glucuronidase (Escherichia coli, UniProt P05804); test: Enzymatic hydrolysis of prodrugs by E. coli β-glucuronidase in MOPS buffer; type: biochemical; conditions: 0.2 unit/mL E. coli enzyme, FIG. 1B
T1 construct: purchased Sigma type IX-A
T1 sequence (P05804 whole entry): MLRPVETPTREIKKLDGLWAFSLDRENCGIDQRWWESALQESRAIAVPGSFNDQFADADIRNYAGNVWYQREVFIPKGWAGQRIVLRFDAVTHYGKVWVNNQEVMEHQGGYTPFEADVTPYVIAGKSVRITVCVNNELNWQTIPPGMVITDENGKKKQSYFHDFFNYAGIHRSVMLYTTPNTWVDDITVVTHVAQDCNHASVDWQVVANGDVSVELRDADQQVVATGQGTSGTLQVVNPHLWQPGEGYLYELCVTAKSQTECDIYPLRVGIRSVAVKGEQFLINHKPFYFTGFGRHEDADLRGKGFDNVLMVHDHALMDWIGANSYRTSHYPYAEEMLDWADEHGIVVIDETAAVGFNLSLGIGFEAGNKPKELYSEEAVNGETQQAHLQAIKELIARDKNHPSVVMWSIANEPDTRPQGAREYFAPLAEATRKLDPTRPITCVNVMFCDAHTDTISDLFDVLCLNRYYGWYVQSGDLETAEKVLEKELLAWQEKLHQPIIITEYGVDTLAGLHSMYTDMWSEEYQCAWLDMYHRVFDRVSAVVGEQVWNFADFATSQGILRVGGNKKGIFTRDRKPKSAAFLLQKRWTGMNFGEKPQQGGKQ
Description: (§1) The enzymatic hydrolysis of the prodrugs was investigated with both E. coli and bovine liver β-glucuronidase in MOPS buffer at pH 7.0. Prodrugs and p-nitrobenzyl alcohol (HPLC internal standard) were dissolved in the MOPS buffer (pH 7.0) at 37° C. Enzymatic cleavage was initiated by adding 0.2 Fishman units of E. coli β-glucuronidase (Sigma type IX-A) (42.8 units/mg of protein) or 10 Fishman units of bovine liver β-glucuronidase (Sigma type B-10) (10.2 units/mg of protein) to the incubation buffer. Aliquots (100 μL) of the reaction mixture were withdrawn at various times and were mixed with 100 μL of acetonitrile/0.1 M TEAA (6:4) to quench the enzymatic reaction. Prodrug and product concentrations were determined by HPLC. For determination of enzyme kinetic parameters, prodrug solutions at concentrations between 5 and 300 μM were incubated with a fixed amount of enzyme. Aliquots were withdrawn at time intervals varying from 1 to 20 min and the reactions were quenched as described above. Initial reaction velocities were determined at each substrate concentration. Non-linear regression methods were used to determine KM and Vmax values. Data were processed with Prism 3.0 software.

[6] = molecular target: T2, bovine liver β-glucuronidase (Bos taurus, UniProt A3KMY8); test: Enzymatic hydrolysis of prodrugs by bovine liver β-glucuronidase in MOPS buffer; type: biochemical; conditions: 10 units/mL bovine liver enzyme, FIG. 1A
T2 construct: bovine liver β-glucuronidase (Sigma type B-10) (10.2 units/mg of protein); purchased Sigma type B-10; host or cells: bovine liver
T2 sequence (A3KMY8 1-652): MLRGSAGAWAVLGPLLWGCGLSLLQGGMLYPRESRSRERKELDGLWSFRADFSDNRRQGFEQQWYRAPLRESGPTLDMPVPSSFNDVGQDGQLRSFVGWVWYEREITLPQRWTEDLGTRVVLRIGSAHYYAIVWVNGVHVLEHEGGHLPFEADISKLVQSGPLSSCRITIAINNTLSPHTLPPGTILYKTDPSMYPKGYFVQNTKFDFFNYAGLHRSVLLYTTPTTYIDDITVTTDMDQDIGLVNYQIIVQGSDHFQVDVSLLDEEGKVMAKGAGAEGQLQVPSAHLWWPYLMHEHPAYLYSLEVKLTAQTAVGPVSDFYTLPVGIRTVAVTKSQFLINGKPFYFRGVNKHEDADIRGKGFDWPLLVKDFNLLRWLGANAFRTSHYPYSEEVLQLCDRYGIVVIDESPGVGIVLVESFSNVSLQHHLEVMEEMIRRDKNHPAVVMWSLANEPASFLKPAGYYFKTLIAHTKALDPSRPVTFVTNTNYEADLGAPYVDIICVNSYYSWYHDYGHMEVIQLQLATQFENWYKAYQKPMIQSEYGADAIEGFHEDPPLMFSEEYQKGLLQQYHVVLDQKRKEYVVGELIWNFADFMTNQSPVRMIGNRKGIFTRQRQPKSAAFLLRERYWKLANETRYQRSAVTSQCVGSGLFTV
Description: as §1

[7] = molecular target: T3, human O^6-alkylguanine-DNA alkyltransferase (Homo sapiens, UniProt P16455); test: Inactivation of purified recombinant human alkyltransferase (AGT) in vitro, [3H]-methylated DNA substrate; type: biochemical; conditions: for IC50: absence of β-glucuronidase, 30 min at 37° C., FIG. 2, read-out: inactivation of human AGT: concentration up to which inactive; for alkyltransferase inactivation in the presence of bovine liver β-glucuronidase: incubation with bovine liver β-glucuronidase (20 or 200 units/mL) for 30 min, FIG. 2A/2B
T3 sequence (P16455 1-207): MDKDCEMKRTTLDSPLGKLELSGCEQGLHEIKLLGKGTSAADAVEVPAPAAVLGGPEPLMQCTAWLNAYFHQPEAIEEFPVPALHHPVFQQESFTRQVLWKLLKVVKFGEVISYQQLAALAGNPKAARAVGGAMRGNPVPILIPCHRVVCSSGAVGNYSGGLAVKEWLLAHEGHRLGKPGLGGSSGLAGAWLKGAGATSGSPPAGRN
Description: Purified recombinant human alkyltransferase was incubated with different concentrations of prodrugs in 0.5 mL of reaction buffer (50 mM Tris-HCl, pH 7.6, 0.1 mM EDTA, 5.0 mM dithiothreitol) containing 50 μg of hemocyanin for 30 min at 37° C. For experiments involving β-glucuronidase, the bovine liver protein, prodrugs and alkyltransferase were incubated together in the above hemocyanin-containing buffer for 30 min at 37° C. The remaining alkyltransferase activity was determined after incubation with a [^3H]-methylated calf thymus DNA substrate for 30 min at 37° C. by measuring the [^3H]-methylated methylated protein formed, which was collected on nitrocellulose filters. The results were expressed as the percentage of the alkyltransferase activity remaining.

| SMILES | ED90 for HT29 cell killing by 40 μM BCNU following a 2-hr incubation with drug [1] | solubility [2] | fold more water soluble than O^6-benzylguanine ([2]; relative to O^6-benzylguanine) | stability under acidic conditions compared with O^6-benzylguanine [3] | Observed first order rate constant for hydrolysis, kTris [4] | Observed first order rate constant for hydrolysis, kMOPS [4] | Observed first order rate constant for hydrolysis, kPBS [4] | average half-time for decomposition ([4]; aqueous buffers of Table 1) | Observed first order rate constant for hydrolysis, kDulbecco [4] | hydrolysis by the E. coli enzyme (prodrug disappearance) [5] | hydrolysis by the bovine liver enzyme (prodrug disappearance) [6] | IC50 [7] | alkyltransferase inactivation in the presence of bovine liver β-glucuronidase [7] | HT29 cell killing by BCNU after prodrug without β-glucuronidase [1] | HT29 cell killing by BCNU after prodrug with β-glucuronidase [1] |
| --- | --- | --- | --- | --- | --- | --- | --- | --- | --- | --- | --- | --- | --- | --- | --- |
| NCc1ccc(COc2nc(N)nc3[nH]cnc23)cc1 [Compound 24, O^6-(4-Aminomethylbenzyl)guanine] | >>5 μM | > 100 mg/mL |  |  |  |  |  |  |  |  |  |  |  |  |  |
| NCc1cccc(COc2nc(N)nc3nc[nH]c23)c1 [Compound 25, O^6-(3-Aminomethylbenzyl)guanine] | 1.75 µM | > 100 mg/mL | at least 700 × | far more stable |  |  |  |  |  |  |  |  |  |  |  |
| Nc1nc(OCc2ccccc2)c2nc[nH]c2n1 [O^6-benzylguanine, reference compound] | 0.75 µM | 0.1 mg/mL (≈ 0.415 mM) |  |  |  |  |  |  |  |  |  |  |  |  |  |
| O=C(Nc1nc(OCc2ccccc2)c2nc[nH]c2n1)OCc1ccc(O[C@@H]2O[C@H](C(=O)O)[C@@H](O)[C@H](O)[C@H]2O)c([N+](=O)[O-])c1 [Prodrug 1, O^6-Benzyl-N-[[[[4′-[(-β-D-glucopyranuronosyl)oxy]-3′-nitrophenyl]methyl]oxy]carbonyl]guanine, monosodium salt] |  |  |  |  | 4.06e-06 min⁻¹ | 3.77e-06 min⁻¹ | 3.86e-06 min⁻¹ | ~100 days | 7.15e-08 s⁻¹ | rapid disappearance | rapid disappearance | > 50 µM | efficient alkyltransferase inactivation | quite resistant to killing | greatly sensitized to killing by BCNU |
| O=C(Nc1nc(OCc2ccccc2)c2ncn([C@H]3C[C@H](O)[C@@H](CO)O3)c2n1)OCc1ccc(O[C@@H]2O[C@H](C(=O)O)[C@@H](O)[C@H](O)[C@H]2O)c([N+](=O)[O-])c1 [Prodrug 2, O^6-Benzyl-N^2-[[[[4″-[(β-D-glucopyranuronosyl)oxy]-3″-nitrophenyl]methyl]oxy]carbonyl]-2′-deoxyguanosine, monosodium salt] |  |  |  |  | 1.55e-07 min⁻¹ | 1.88e-07 min⁻¹ | 6.46e-07 min⁻¹ |  | 7.8e-09 s⁻¹ | rapid disappearance | rapid disappearance | > 50 µM | efficient alkyltransferase inactivation | quite resistant to killing | much greater cell killing by BCNU |
